In PubChem BioAssay AID248 (DTP/NCI, 2004):
Values joined by “and” are separate entries in the source; they are usually repeats but may differ in a detail not shown here. Identical values can stand only once. Toxic doses and inconclusive results are not listed. Cut-off read from the data, not from the text of the source: active = T/C of 150% or more; inactive = T/C below 125%.

System: L1210 leukemia ip in BDF1 mice, survival T/C
Test: NCI In Vivo Anticancer Drug Screen. Data for tumor model L1210 Leukemia (intraperitoneal) in B6D2F1 (BDF1) mice
Settings: endpoint: mean survival time, higher = longer survival
How it was run: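 Value reflects the ratio of survival in compound-treated mice to survival in vehicle-treated controls, with both groups carrying the same transplanted tumor.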

[1] = dose: 50.0 mg/kg/injection, schedule: Q01DX009 (ip), vehicle: saline with Tween-80
[2] = dose: 100.0 mg/kg/injection, schedule: Q01DX009 (ip), vehicle: saline with Tween-80
[3] = dose: 100.0 mg/kg/injection, schedule: Q04DX003 (ip), vehicle: saline with Tween-80
[4] = dose: 200.0 mg/kg/injection, schedule: Q01DX009 (ip), vehicle: saline with Tween-80
[5] = dose: 200.0 mg/kg/injection, schedule: Q04DX003 (ip), vehicle: saline with Tween-80
[6] = dose: 100.0 mg/kg/injection, schedule: Q04DX003 (ip), vehicle: saline
[7] = dose: 200.0 mg/kg/injection, schedule: Q04DX003 (ip), vehicle: saline
[8] = dose: 400.0 mg/kg/injection, schedule: Q04DX003 (ip), vehicle: saline with Tween-80
[9] = dose: 100.0 mg/kg/injection, schedule: Q04DX003 (ip), vehicle: Klucel (hydroxypropylcellulose) (HPC)
[10] = dose: 200.0 mg/kg/injection, schedule: Q04DX003 (ip), vehicle: Klucel (hydroxypropylcellulose) (HPC)
[11] = dose: 400.0 mg/kg/injection, schedule: Q04DX003 (ip), vehicle: Klucel (hydroxypropylcellulose) (HPC)
[12] = dose: 50.0 mg/kg/injection, schedule: Q01DX001 (ip), vehicle: saline
[13] = dose: 100.0 mg/kg/injection, schedule: Q01DX001 (ip), vehicle: saline
[14] = dose: 200.0 mg/kg/injection, schedule: Q01DX001 (ip), vehicle: saline
[15] = dose: 400.0 mg/kg/injection, schedule: Q01DX001 (ip), vehicle: saline
[16] = dose: 50.0 mg/kg/injection, schedule: Q01DX009 (ip), vehicle: Klucel (hydroxypropylcellulose) (HPC)
[17] = dose: 100.0 mg/kg/injection, schedule: Q01DX009 (ip), vehicle: Klucel (hydroxypropylcellulose) (HPC)
[18] = dose: 200.0 mg/kg/injection, schedule: Q01DX009 (ip), vehicle: Klucel (hydroxypropylcellulose) (HPC)
[19] = dose: 12.5 mg/kg/injection, schedule: Q01DX009 (ip), vehicle: saline with Tween-80
[20] = dose: 25.0 mg/kg/injection, schedule: Q01DX009 (ip), vehicle: saline with Tween-80
[21] = dose: 400.0 mg/kg/injection, schedule: Q01DX009 (ip), vehicle: Klucel (hydroxypropylcellulose) (HPC)
[22] = dose: 100.0 mg/kg/injection, schedule: Q04DX002 (ip), vehicle: Klucel (hydroxypropylcellulose) (HPC)
[23] = dose: 200.0 mg/kg/injection, schedule: Q04DX002 (ip), vehicle: Klucel (hydroxypropylcellulose) (HPC)

Measured: T/C

CC(=O)OC1CC2C(C)(C)C(=O)C3OC3C2(C)C2CCC3(C)C(=CC(=O)OC3c3ccoc3)C12C (stereo not drawn)
inactive: dose: 100.0 mg/kg/injection, schedule: Q01DX001 (sc), vehicle: steriod suspending solution 101 % of control | dose: 200.0 mg/kg/injection, schedule: Q01DX001 (sc), vehicle: steriod suspending solution 104 % of control | dose: 400.0 mg/kg/injection, schedule: Q01DX001 (sc), vehicle: steriod suspending solution 103 % of control

Oc1ccc(Cl)c2c1CCC2
inactive: [1] 110 % of control | [2] 102 % of control | [3] 101 % of control | [4] 104 % of control | [5] 101 % of control

COc1ccc(O)c(N=Nc2nccs2)c1
inactive: [1] 109 % of control | [2] 106 % of control | [4] 102 % of control

Cc1ccc(C(=O)CCN2CCOCC2)cc1C
inactive: [6] 93 % of control | [7] 91 % of control

O=C(NC(CO)C(O)c1ccc([N+](=O)[O-])cc1)C(Cl)Cl (stereo not drawn)
inactive: [3] 102 % of control | [5] 101 % of control | [8] 106 % of control

c1ccc2c3c(ccc2c1)CCC/C3=N\N=C1/CCCc2ccc3ccccc3c21
inactive: [9] 90 % of control | [10] 98 % of control | [11] 92 % of control

CC(=O)OCC(OC(C)=O)C(OC(C)=O)C(OC(C)=O)C(C#N)OC(C)=O (stereo not drawn)
inactive: [12] 106 % of control | dose: 100.0 mg/kg/injection, schedule: Q01DX001 (ip), vehicle: other 115 % of control | [13] 103 % of control | dose: 200.0 mg/kg/injection, schedule: Q01DX001 (ip), vehicle: other 102 % of control | [14] 95 % of control | dose: 400.0 mg/kg/injection, schedule: Q01DX001 (ip), vehicle: other 96 % of control | [15] 91 % of control

CCOC(=O)c1cc(Cl)cc(C(=O)OCC)n1
inactive: [2] 111 % of control | [4] 107 % of control | dose: 400.0 mg/kg/injection, schedule: Q01DX009 (ip), vehicle: saline with Tween-80 102 % of control

c1ccc2c(c1)CCc1c-2[nH]c2c1ccc1ccccc12
inactive: [13] 91 % of control | [14] 111 % of control | [15] 94 % of control

BrC(Br)c1cnc2ccccc2n1
inactive: [16] 107 % of control | [17] 92 % of control | [18] 101 % of control

CCCCCCCCS.[Ni]
inactive: dose: 6.0 mg/kg/injection, schedule: Q01DX009 (ip), vehicle: Klucel (hydroxypropylcellulose) (HPC) 100 % of control | dose: 12.0 mg/kg/injection, schedule: Q01DX009 (ip), vehicle: Klucel (hydroxypropylcellulose) (HPC) 92 % of control | dose: 25.0 mg/kg/injection, schedule: Q01DX009 (ip), vehicle: Klucel (hydroxypropylcellulose) (HPC) 92 % of control | [6] 102 % of control

C[n+]1c(/C=C/c2ccc3cccc(O)c3n2)ccc2cccc(O)c21
inactive: dose: 12.5 mg/kg/injection, schedule: Q01DX001 (ip), vehicle: saline 100 % of control | [19] 106 % of control | dose: 12.5 mg/kg/injection, schedule: Q04DX003 (ip), vehicle: saline 96 % of control | dose: 25.0 mg/kg/injection, schedule: Q01DX001 (ip), vehicle: saline 107 % of control | [20] 95 % of control | dose: 25.0 mg/kg/injection, schedule: Q04DX003 (ip), vehicle: saline 97 % of control | [12] 102 % of control | dose: 50.0 mg/kg/injection, schedule: Q04DX003 (ip), vehicle: saline 96 % of control

COc1ccccc1C(=O)C(O)c1ccccc1OC (stereo not drawn)
inactive: [16] 105 % of control | [17] 101 % of control | [9] 94 % of control | [18] 96 % of control | [10] 96 % of control | [21] 101 % of control | [11] 93 % of control

CN(C)c1ccc(C(N)C(=O)O)cc1 (stereo not drawn)
inactive: [12] 101 % of control | [13] 98 % of control | [14] 95 % of control

CC1=NCCN1CCNC(=O)c1ccc(C(=O)NCCN2CCN=C2C)cc1
inactive: dose: 5.0 mg/kg/injection, schedule: Q01DX001 (ip), vehicle: saline 103 % of control | dose: 10.0 mg/kg/injection, schedule: Q01DX001 (ip), vehicle: saline 101 % of control

Cc1cc(=O)[nH]c2c1CCCC2
inactive: [3] 92 % of control | [5] 97 % of control | [8] 101 % of control

O=C(O)CCCc1ccc2c(c1)-c1ccccc1S2=O (stereo not drawn)
inactive: [3] 106 % of control | [5] 109 % of control | [8] 110 % of control

CC1CCC2(OC1)OC1CC3C4CCC5CC(=O)CCC5(C)C4CCC3(C)C1C2C (stereo not drawn)
inactive: [22] 102 % of control | [23] 105 % of control | dose: 400.0 mg/kg/injection, schedule: Q04DX002 (ip), vehicle: Klucel (hydroxypropylcellulose) (HPC) 94 % of control

COc1ccc2c(C)c(Br)sc2c1
inactive: dose: 100.0 mg/kg/injection, schedule: Q01DX001 (ip), vehicle: carboxymethylcellulose (CMC) 89 % of control | dose: 200.0 mg/kg/injection, schedule: Q01DX001 (ip), vehicle: carboxymethylcellulose (CMC) 94 % of control | dose: 400.0 mg/kg/injection, schedule: Q01DX001 (ip), vehicle: carboxymethylcellulose (CMC) 94 % of control

O=C(O)c1ccc(C(=O)/C=N/O)nc1
inactive: [17] 90 % of control | [18] 93 % of control | [21] 97 % of control

O=C1c2cccc3cccc(c23)C(=O)N1CCCN1C(=O)c2cccc3cccc(c23)C1=O
inactive: [22] 88 % of control | [23] 98 % of control

C=CCNC(=O)Nc1cccc(OC(=O)NC(C)(C)C)c1
inactive: [3] 94 % of control | [5] 94 % of control | [8] 94 % of control

O=P(NC1CCCCC1)(OCc1ccccc1)N(CCCl)CCCl (stereo not drawn)
inactive: dose: 10.0 mg/kg/injection, schedule: Q01DX Z (ip), vehicle: water 98 % of control | dose: 20.0 mg/kg/injection, schedule: Q01DX Z (ip), vehicle: water 91 % of control | dose: 40.0 mg/kg/injection, schedule: Q01DX Z (ip), vehicle: water 96 % of control | dose: 80.0 mg/kg/injection, schedule: Q01DX009 (ip), vehicle: water 93 % of control | dose: 160.0 mg/kg/injection, schedule: Q01DX009 (ip), vehicle: water 89 % of control

CCCCCCCCCCCCn1cnc2ncnc(Cl)c21
inactive: dose: 12.5 mg/kg/injection, schedule: Q01DX005 (ip), vehicle: other 102 % of control | dose: 25.0 mg/kg/injection, schedule: Q01DX005 (ip), vehicle: other 98 % of control | dose: 50.0 mg/kg/injection, schedule: Q01DX005 (ip), vehicle: other 98 % of control | dose: 100.0 mg/kg/injection, schedule: Q01DX005 (ip), vehicle: other 96 % of control

O=C(C=C(C(F)(F)F)C(F)(F)F)c1ccc(C(=O)C=C(C(F)(F)F)C(F)(F)F)cc1
inactive: [19] 89 % of control | [20] 100 % of control | [1] 94 % of control and 101 % of control

CCOC(OC(C)=O)OC(C)=O
inactive: [6] 87 % of control | [7] 101 % of control | dose: 400.0 mg/kg/injection, schedule: Q04DX003 (ip), vehicle: saline 97 % of control

Cl/C(=C\c1ccccc1)c1ccccc1
inactive: dose: 25.0 mg/kg/injection, schedule: Q04DX003 (ip), vehicle: Klucel (hydroxypropylcellulose) (HPC) 96 % of control | dose: 50.0 mg/kg/injection, schedule: Q04DX003 (ip), vehicle: Klucel (hydroxypropylcellulose) (HPC) 95 % of control | [9] 96 % of control | [11] 101 % of control

Cc1cc(C)c2c(C#N)cn(-c3ccc([N+](=O)[O-])cc3)c2n1
inactive: dose: 100.0 mg/kg/injection, schedule: Q01DX001 (ip), vehicle: saline with Tween-80 98 % of control | dose: 200.0 mg/kg/injection, schedule: Q01DX001 (ip), vehicle: saline with Tween-80 109 % of control | [14] 102 % of control | dose: 400.0 mg/kg/injection, schedule: Q01DX001 (ip), vehicle: saline with Tween-80 95 % of control | [15] 94 % of control
